Data: the NIST ThermoML archive (doi:10.1016/j.jct.2012.11.001)

Assay: wn = mass fraction of the nth substance listed
Settings: 101 kPa, Liquid; for viscosity: Capillary tube (Ostwald / Ubbelohde) method; for speed of sound: Linear variable-path acoustic interferometer; for mass density: Pycnometric method

OC[C@H]1O[C@@](CO)(O[C@H]2O[C@H](CO)[C@@H](O)[C@H](O)[C@H]2O)[C@@H](O)[C@@H]1O [D-sucrose] + O
Settings	mass density [kg/m3]	speed of sound [m/s]	viscosity [mPa·s]
293.15 K, w1 = 0.05	1018.91	1501.4	1.214
293.15 K, w1 = 0.1	1039.28	1522.5	1.376
293.15 K, w1 = 0.15	1060.31	1533.4	1.609
293.15 K, w1 = 0.2	1082.73	1545.2	1.932
298.15 K, w1 = 0.05	1017.19	1516.5	1.011
298.15 K, w1 = 0.1	1037.45	1531.8	1.183
298.15 K, w1 = 0.15	1058.49	1543.6	1.418
298.15 K, w1 = 0.2	1080.77	1555.3	1.756
303.15 K, w1 = 0.05	1015.46	1526.6	0.9129
303.15 K, w1 = 0.1	1035.61	1541.8	1.061
303.15 K, w1 = 0.15	1056.67	1553	1.252
303.15 K, w1 = 0.2	1078.8	1564.6	1.549
308.15 K, w1 = 0.05	1013.72	1537.8	0.8285
308.15 K, w1 = 0.1	1033.76	1551.6	0.9614
308.15 K, w1 = 0.15	1054.84	1562	1.129
308.15 K, w1 = 0.2	1076.84	1575.2	1.396
313.15 K, w1 = 0.05	1011.98	1547.7	0.7457
313.15 K, w1 = 0.1	1031.93	1561.8	0.8804
313.15 K, w1 = 0.15	1053.01	1570.8	1.025
313.15 K, w1 = 0.2	1074.88	1583.9	1.25
318.15 K, w1 = 0.05	1010.23	1557.2	0.6946
318.15 K, w1 = 0.1	1030.09	1570.9	0.8179
318.15 K, w1 = 0.15	1051.2	1579.2	0.9402
318.15 K, w1 = 0.2	1072.93	1592.8	1.15
